Several values for one entry are separate records, joined by “and”; a condition that tells them apart may be missing. Equal entries are not always repeated. Entries after “also recorded” stand apart in the source; their conditions may differ. Structures can show the parent of a compound that is named as a salt. Where two headings read alike, the source gives them in different places. Where a SMILES comes first, the peptide text is derived from it.
Assays:
L-carnitine amidase [1] = system: L-carnitine amidase;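 further: additives put into the enzyme mixture before substrate, reaction then initiated by substrate addition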
Experimental: In order to test the influence of various additives on the enzyme activity, they were added to the test batches without substrate in a final concentration of 1 mM and 10 mM in each instance. The reaction batches were first incubated for 45 min. at 30° C. before the reaction was started by adding substrate solution.

L-carnitine amidase [2] = assay: Substrate spectrum of L-carnitine amidase; format: biochemical, strain DSM 6230; details: substrate 50 mM; 30° C.; 100 mM potassium phosphate buffer pH 8
Experimental: The enzyme test was carried out at 30° C. in 100 mM potassium phosphate buffer pH 8. The substrate concentration was 50 mM.

L-carnitine amidase [3] = assay: Test for the induction of L-carnitine amidase; format: cell-based, strain DSM 6230; details: for Activity (mU/mg) / Activity (mU/ml): 5 g/l of the substance as inductor, 36 h, L-carnitine amide as substrate; for Induction of L-carnitine amidase (in words): strain DSM 6230
Experimental: (§1) In this test, various substances were examined for their induction action. At the same time, the growth on these compounds was followed. The medium used was a minimum medium with 1.0 g/l instead of 0.5 g/l yeast extract, to which 5 g/l of the substance to be tested were added in each instance. The culture without inductor contained 5 g/l yeast extract. All tests were carried out with 20 ml shaking cultures which were incubated 36 h at 30° C. and 120 rpms in a rotating [round]shaking machine. These cultures were inoculated with 1% of an initial culture of strain DSM 6230. L-carnitine amide was used as substrate for the enzyme test.
(§2) At the same time, the growth of the bacteria was followed in these carnitine amide concentrations. The culture conditions corresponded to those in example 3.

strain DSM 6230 = assay: Growth of strain DSM 6230 on the test substances (OD660); format: cell-based; details: for OD660: 5 g/l of the substance in minimum medium with 1.0 g/l yeast extract, 36 h, 30° C.; for Growth of the strain on the substance (in words): strain DSM 6230
Experimental: 1367 strains were isolated during the screening program. These strains were incubated in 100 ml Erlenmeyer flasks containing 20 ml of the particular enrichment medium in a rotary agitator at 30° C. and 120 rpms. The optical density at 660 nm was taken as an indication for the cell growth.
as §1, §2

[4] = additive 1 mM, 45 min. preincubation at 30° C.
[5] = additive 10 mM, 45 min. preincubation at 30° C.
[6] = carnitine amide concentration 0.5 g/l
[7] = carnitine amide concentration 1.0 g/l
[8] = carnitine amide concentration 2.0 g/l
[9] = carnitine amide concentration 3.0 g/l
[10] = carnitine amide concentration 5.0 g/l
[11] = carnitine amide concentration 10.0 g/l
[12] = carnitine amide concentration 15.0 g/l
[13] = carnitine amide concentration 20.0 g/l
[14] = carnitine amide concentration 25.0 g/l

Compound: [Cl][Ni][Cl] [NiCl2]
- Enzyme activity (%) (L-carnitine amidase [1]; [4]): 80%
- Enzyme activity (%) (L-carnitine amidase [1]; [5]): 79%

Compound: CSCC[C@H](N)C(N)=O [L-Met-NH2]
- Rel. activity (%) (L-carnitine amidase [2]): 0%

Compound: C[N+](C)(C)CC(O)CC#N (racemic) [DL-carnitine nitrile]
- Activity (mU/mg) (L-carnitine amidase [3]): 88 mU/mg
- Activity (mU/ml) (L-carnitine amidase [3]): 221 mU/ml
- OD660 (strain DSM 6230): 0.8

Compound: [Ba+2].[Cl-].[Cl-] [BaCl2]
- Enzyme activity (%) (L-carnitine amidase [1]; [4]): 102%
- Enzyme activity (%) (L-carnitine amidase [1]; [5]): 105%

Compound: NC(=O)[C@H](Cc1ccccc1)NC(=O)[C@@H](N)CC(=O)O [L-Asp-L-Phe-NH2] (H-Asp-Phe-NH2)
- Rel. activity (%) (L-carnitine amidase [2]): 0%

Compound: CC(C)[C@H](N)C(=O)N[C@@H](Cc1ccccc1)C(N)=O [L-Val-L-Phe-NH2] (H-Val-Phe-NH2)
- Rel. activity (%) (L-carnitine amidase [2]): 0%

Compound: O=C(O)CN(CCN(CC(=O)O)CC(=O)O)CC(=O)O [Titriplex III (EDTA)]
- Enzyme activity (%) (L-carnitine amidase [1]): 93% and 73%
- Reduction of the enzyme activity (in words) (L-carnitine amidase [1]): reduction of the enzyme activity

Compound: NCC(=O)NCC(N)=O [Gly-Gly-NH2]
- Rel. activity (%) (L-carnitine amidase [2]): 0%

Compound: [F-].[Na+] [NaF]
- Enzyme activity (%) (L-carnitine amidase [1]; [4]): 88%
- Enzyme activity (%) (L-carnitine amidase [1]; [5]): 78%
- Reduction of the enzyme activity (in words) (L-carnitine amidase [1]; concentration of 10 mM): reduction of the enzyme activity

Compound: NC(=O)c1cccnc1 [Nicotinamide]
- Activity (mU/mg) (L-carnitine amidase [3]): 28 mU/mg
- Activity (mU/ml) (L-carnitine amidase [3]): 55 mU/ml
- OD660 (strain DSM 6230): 0.7

Compound: [Cl-].[Cl-].[Co+2] [CoCl2]
- Enzyme activity (%) (L-carnitine amidase [1]; [4]): 90%
- Enzyme activity (%) (L-carnitine amidase [1]; [5]): 76%
- Reduction of the enzyme activity (in words) (L-carnitine amidase [1]; concentration of 10 mM): reduction of the enzyme activity

Compound: NC(=O)[C@@H](N)Cc1c[nH]c2ccccc12 [L-Trp-NH2]
- Rel. activity (%) (L-carnitine amidase [2]): 0%

Compound: C[N+](C)(C)CCCC(=O)[O-] [butyrobetaine, γ-butyrobetaine]
- Activity (mU/mg) (L-carnitine amidase [3]): 566 mU/mg
- Activity (mU/ml) (L-carnitine amidase [3]): 963 mU/ml
- Induction of L-carnitine amidase (in words) (L-carnitine amidase [3]): induced; also recorded: Inductors; also recorded: induce the enzyme
- OD660 (strain DSM 6230): 0.7
- Growth of the strain on the substance (in words) (strain DSM 6230): can not be metabolized or are metabolized very poorly

Compound: CC(C)C[C@@H](N)C(N)=O [D-leucine amide]
- Activity (mU/mg) (L-carnitine amidase [3]): 81 mU/mg
- Activity (mU/ml) (L-carnitine amidase [3]): 170 mU/ml
- OD660 (strain DSM 6230): 0.8

Compound: [Cl][Mn][Cl] [MnCl2]
- Enzyme activity (%) (L-carnitine amidase [1]; [4]): 89%
- Enzyme activity (%) (L-carnitine amidase [1]; [5]): 76%
- Reduction of the enzyme activity (in words) (L-carnitine amidase [1]; concentration of 10 mM): reduction of the enzyme activity

Compound: CC=O [Acetaldehyde]
- Enzyme activity (%) (L-carnitine amidase [1]; [4]): 83%
- Enzyme activity (%) (L-carnitine amidase [1]; [5]): 81%

Compound: c1cnc2c(c1)ccc1cccnc12 [Phenanthroline]
- Enzyme activity (%) (L-carnitine amidase [1]; [4]): 89%
- Enzyme activity (%) (L-carnitine amidase [1]; [5]): 82%

Compound: CCN1C(=O)C=CC1=O [Ethyl maleinimide]
- Enzyme activity (%) (L-carnitine amidase [1]): 99%
- Enzyme activity (%) (L-carnitine amidase [1]; [4]): 100%

Compound: [Cl][Fe][Cl] [FeCl2]
- Enzyme activity (%) (L-carnitine amidase [1]; [4]): 86%
- Enzyme activity (%) (L-carnitine amidase [1]; [5]): 57%

Compound: O=C(O)c1cc(SSc2ccc([N+](=O)[O-])c(C(=O)O)c2)ccc1[N+](=O)[O-] [Dinitrodithiodibenzoic acid]
- Enzyme activity (%) (L-carnitine amidase [1]; [4]): 34%

Compound: [Cl-].[Cl-].[Zn+2] [ZnCl2]
- Enzyme activity (%) (L-carnitine amidase [1]; [4]): 6%

Compound: CC(C)CC(N)C(N)=O (centres unmarked) [Leu-NH2]
- Rel. activity (%) (L-carnitine amidase [2]): 0%

Compound: O=[N+]([O-])[O-].[Ag+] [AgNO3]
- Enzyme activity (%) (L-carnitine amidase [1]; [4]): 65%

Compound: OCCS [2-mercaptoethanol]
- Enzyme activity (%) (L-carnitine amidase [1]; [4]): 100%
- Enzyme activity (%) (L-carnitine amidase [1]; [5]): 101%

Compound: O=C(O)CI [Iodoacetate]
- Enzyme activity (%) (L-carnitine amidase [1]): 97% and 72%
- Reduction of the enzyme activity (in words) (L-carnitine amidase [1]): reduction of the enzyme activity

Compound: [Cl-].[Cl-].[Mg+2] [MgCl2]
- Enzyme activity (%) (L-carnitine amidase [1]; [4]): 96%
- Enzyme activity (%) (L-carnitine amidase [1]; [5]): 88%

Compound: O=C(O)c1cc[c]([Hg][OH])cc1 [Para-hydroxymercuribenzoate]
- Enzyme activity (%) (L-carnitine amidase [1]; [4]): 51%

Compound: C[N+](C)(C)C[C@H](O)CC(=O)[O-] [L-carnitine, 3-hydroxy-4-trimethylaminobutyrate]
- Induction of L-carnitine amidase (in words) (L-carnitine amidase [3]): induced; also recorded: Inductors

Compound: CC(C)CC(=O)C(=O)O [α-ketoisocaproic acid]
- Enzyme activity (%) (L-carnitine amidase [1]; [4]): 92%
- Enzyme activity (%) (L-carnitine amidase [1]; [5]): 90%

Compound: CCC(CC)(C(=O)O)C(=O)O [Diethyl malonic acid]
- Enzyme activity (%) (L-carnitine amidase [1]; [4]): 92%
- Enzyme activity (%) (L-carnitine amidase [1]; [5]): 68%
- Reduction of the enzyme activity (in words) (L-carnitine amidase [1]; concentration of 10 mM): reduction of the enzyme activity

Compound: N[C@@H]1CON=C1O [Cycloserine]
- Enzyme activity (%) (L-carnitine amidase [1]; [4]): 96%
- Enzyme activity (%) (L-carnitine amidase [1]; [5]): 97%

Compound: CN(C)C(=O)Oc1cccc([N+](C)(C)C)c1 [Neostigmine bromide]
- Enzyme activity (%) (L-carnitine amidase [1]; [4]): 100%
- Enzyme activity (%) (L-carnitine amidase [1]; [5]): 94%

Compound: C[N+](C)(C)CC(O)CC(N)=O (racemic) [DL-carnitine amide]
- Activity (mU/mg) (L-carnitine amidase [3]): 1673 mU/mg
- Activity (mU/ml) (L-carnitine amidase [3]): 8867 mU/ml
- amidase activity (U/ml) (L-carnitine amidase [3]; [6]): 0.7 U/ml
- amidase activity (U/ml) (L-carnitine amidase [3]; [7]): 2.4 U/ml
- amidase activity (U/ml) (L-carnitine amidase [3]; [8]): 6.1 U/ml
- amidase activity (U/ml) (L-carnitine amidase [3]; [9]): 7.3 U/ml
- amidase activity (U/ml) (L-carnitine amidase [3]; [10]): 8.9 U/ml
- amidase activity (U/ml) (L-carnitine amidase [3]; [11]): 8.6 U/ml
- amidase activity (U/ml) (L-carnitine amidase [3]; [12]): 7.3 U/ml
- amidase activity (U/ml) (L-carnitine amidase [3]; [13]): 7.1 U/ml
- amidase activity (U/ml) (L-carnitine amidase [3]; [14]): 6.7 U/ml
- OD660 (strain DSM 6230): 2.7
- OD660 nm (strain DSM 6230; [6]): 1.1
- OD660 nm (strain DSM 6230; [7]): 1.3
- OD660 nm (strain DSM 6230; [8]): 1.7
- OD660 nm (strain DSM 6230; [9]): 2.0
- OD660 nm (strain DSM 6230; [10]): 2.8
- OD660 nm (strain DSM 6230; [11]): 3.9
- OD660 nm (strain DSM 6230; [12]): 3.7
- OD660 nm (strain DSM 6230; [13]): 3.6
- OD660 nm (strain DSM 6230; [14]): 3.5
- Growth of the strain on the substance (in words) (strain DSM 6230): Good growth

Compound: N[C@@H](CCC(=O)N[C@@H](CS)C(=O)NCC(=O)O)C(=O)O [Red. glutathione]
- Enzyme activity (%) (L-carnitine amidase [1]): 97% and 92%
- Reduction of the enzyme activity (in words) (L-carnitine amidase [1]): reduction of the enzyme activity

Compound: Cl.N=C(N)c1ccc(N)cc1 [Para-amino benzamidine hydrochloride]
- Enzyme activity (%) (L-carnitine amidase [1]; [4]): 88%
- Enzyme activity (%) (L-carnitine amidase [1]; [5]): 99%

Compound: [N-]=[N+]=[N-].[Na+] [NaN3]
- Enzyme activity (%) (L-carnitine amidase [1]; [4]): 85%
- Enzyme activity (%) (L-carnitine amidase [1]; [5]): 82%

Compound: [Cl][Fe]([Cl])[Cl] [FeCl3]
- Enzyme activity (%) (L-carnitine amidase [1]; [4]): 87%
- Enzyme activity (%) (L-carnitine amidase [1]; [5]): 46%

Compound: Cc1ccc(S(=O)(=O)N[C@@H](CCCCN)C(=O)CCl)cc1 [Na-tosyl-L-lysyl-chloromethane hydrochloride]
- Enzyme activity (%) (L-carnitine amidase [1]; [4]): 84%
- Enzyme activity (%) (L-carnitine amidase [1]; [5]): 73%
- Reduction of the enzyme activity (in words) (L-carnitine amidase [1]; concentration of 10 mM): reduction of the enzyme activity

Compound: [Cl][Cu][Cl] [CuCl2]
- Enzyme activity (%) (L-carnitine amidase [1]; [4]): 70%
- Enzyme activity (%) (L-carnitine amidase [1]; [5]): 54%

Compound: [Ca+2].[Cl-].[Cl-] [CaCl2]
- Enzyme activity (%) (L-carnitine amidase [1]; [4]): 103%
- Enzyme activity (%) (L-carnitine amidase [1]; [5]): 90%

Compound: C[N+](C)(C)CC(=O)[O-] [Glycine betaine]
- Activity (mU/mg) (L-carnitine amidase [3]): 33 mU/mg
- Activity (mU/ml) (L-carnitine amidase [3]): 183 mU/ml
- OD660 (strain DSM 6230): 2.9
- Growth of the strain on the substance (in words) (strain DSM 6230): Good growth

Compound: O=S(=O)(F)Cc1ccccc1 [Phenylmethane sulfonylfluoride (PMSF), Phenylmethane sulfonylfluoride]
- Enzyme activity (%) (L-carnitine amidase [1]; [4]): 23%
- Enzyme activity (%) (L-carnitine amidase [1]; [5]): 2%

Compound: C[N+](C)(C)CC(=O)CC(=O)[O-] [Dehydrocarnitine]
- Activity (mU/mg) (L-carnitine amidase [3]): 279 mU/mg
- Activity (mU/ml) (L-carnitine amidase [3]): 837 mU/ml
- Induction of L-carnitine amidase (in words) (L-carnitine amidase [3]): induced; also recorded: Inductors; also recorded: induce the enzyme
- OD660 (strain DSM 6230): 0.8
- Growth of the strain on the substance (in words) (strain DSM 6230): can not be metabolized or are metabolized very poorly

Compound: [Cl][Hg][Cl] [HnCl2]
- Enzyme activity (%) (L-carnitine amidase [1]; [4]): < 1%

Compound: C[N+](C)(C)CC(O)CC(=O)[O-] (racemic) [DL-carnitine]
- Activity (mU/mg) (L-carnitine amidase [3]): 1255 mU/mg
- Activity (mU/ml) (L-carnitine amidase [3]): 5773 mU/ml
- OD660 (strain DSM 6230): 2.5
- Growth of the strain on the substance (in words) (strain DSM 6230): Good growth

Reference: US5238838A (Degussa Aktiengesellschaft, priority 1991, dated 1993)
